Source: US9505765B2, “4-alkoxy/aralkoxy-5-substituted-pyrrolopyrimidine compounds as TAK1 inhibitors in disease treatment” (Confluence Life Sciences Inc., priority 2012, dated 2016)

Assays:
[1] = tested on: A549 cells; experiment: IL-1β stimulated IL-6 Production in A549 cells; type: cell-based; conditions: Homo sapiens, 1 ng/ml rhIL1β, 18 hrs; for IC50: read-out: IL-6 Production IC; for activity at 5 µM: 5 μM compound, read-out: IL-6 Production % Control 5 μM; for activity at 50 µM: 50 μM compound, read-out: IL-6 Production % Control 50 μM
Description: IL-1β stimulated IL-6 Production in A549 cells: The cellular efficacy of compound candidates is determined using the human lung epithelial cell line A549 (ATCC #CCL-185), based upon the methods of Wheeler et al. (2004) J. Nutrition 134, 1039-1044, and Eda et al. (2011) Cell Biol. Int. 35, 355-358. A549 cells produce a number of cytokines (IL6, IL8 and TNFα) in response to stimulation with IL1β. To induce the production of inflammatory mediators, A549 cells are plated at a final concentration of 3×10^5 cells/well of a 96 well flat bottom plate in F12-K medium supplemented with 10% fetal bovine serum, 100 units/ml penicillin and 100 μg/ml streptomycin (Gibco BRL Life Technologies). Cells are treated with or without inhibitors for 3 hrs then stimulated with 1 ng/ml rhIL1β (R & D Systems) for an additional 18 hrs at 37° C. with 5% CO2. The supernatants are removed and stored at −20° C. until they are to be assayed. The levels of inflammatory mediators are determined using commercial MSD cytokine kits (Meso Scale Discovery) as per the manufacturer's instructions. Standard curves are based on 7 steps of 4× serial dilutions, with a wide dynamic range of 10000 pg/ml to 2.4 pg/ml, and the blank in triplicate. Lower limit of detection (LLOD) is calculated at the commonly used 3× the standard deviation of the blank.
Compounds were tested in accordance with the above described assay, yielding the values described below: […]

[2] = molecular target: TAK1-TAB1 (Homo sapiens (Human), UniProt O43318); experiment: TAK1-TAB1 competitive binding assay (LanthaScreen), without pre-incubation; conditions: 10 nM TAK1-TAB1, 100 nM kinase tracer-236, read-out: TAK1-TAB1 Inhibition IC50
Text: TAK1-TAB1 Binding Inhibitory Potency: The ability of candidate compounds to interact with TAK1-TAB1 is quantitated by a competitive binding assay using the LanthaScreen technology developed by Life Technologies. This assay is based on the binding of a proprietary, Alexa Fluor® 647-labeled, ATP-competitive kinase inhibitor (kinase tracer-236) to the TAK1-TAB1 construct in presence of a europium-conjugated antibody, resulting in a FRET (fluorescence resonance energy transfer) signal. Displacement of the kinase tracer by compound results in a lower emission ratio upon excitation of the europium chelate. Candidate compounds are designed as potential irreversible inhibitors of TAK1-TAB1, capable of ligating to an active site cysteine residue. The time dependent nature of irreversible inhibition is investigated by performing the binding assay with and without a pre-incubation of compound and TAK1-TAB1.
The inhibitory potency of candidate compounds is measured in 20 mM HEPES pH 7.5, 10 mM MgCl2, 0.01% BSA, 0.0005% Tween-20, and 2% DMSO in the presence of 10 nM TAK1-TAB1, 2 nM Eu-anti-his antibody, and 100 nM kinase tracer-236 using a 384-well plate format. Background signal is defined in the absence of TAK1-TAB1 and uninhibited signal is defined in the presence of vehicle (2% DMSO) alone. Compounds were evaluated in an 11 point dose-response ranging from 20 μM to 0.34 nM. The binding assays are performed under two conditions to evaluate time dependence of inhibition. For the pre-incubation assay, TAK1-TAB1 and Eu-anti-his antibody are preincubated with compound or vehicle for two hours prior to the addition of kinase tracer. The non-preincubated assay is run in which TAK1-TAB1 and Eu-anti-his antibody are added to a mixture of compound and kinase tracer. IC50 values of compounds are determined using a 4 parameter logistical fit of emission ratio as a function of the concentration of compound.
Compounds were tested in accordance with the above described assay, without pre-incubation, yielding the values described below: […]

Chain of TAK1-TAB1 (O43318 other isoform, or with tags, fused parts or gaps): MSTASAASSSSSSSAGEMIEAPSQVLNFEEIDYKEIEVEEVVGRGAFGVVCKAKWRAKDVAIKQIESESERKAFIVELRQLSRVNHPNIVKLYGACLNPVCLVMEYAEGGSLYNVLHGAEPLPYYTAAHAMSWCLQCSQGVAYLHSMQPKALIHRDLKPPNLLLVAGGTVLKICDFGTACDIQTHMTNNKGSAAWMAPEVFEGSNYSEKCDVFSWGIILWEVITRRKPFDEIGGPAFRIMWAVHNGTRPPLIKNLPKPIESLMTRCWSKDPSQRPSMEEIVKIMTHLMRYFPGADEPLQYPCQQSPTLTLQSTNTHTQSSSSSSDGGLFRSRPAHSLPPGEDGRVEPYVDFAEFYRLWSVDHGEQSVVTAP

| SMILES | IC50 [1] [nM] | activity at 5 µM [1] [%] | activity at 50 µM [1] [%] | IC50 [2] [nM] |
| --- | --- | --- | --- | --- |
| CC(C)(C)Oc1ncnc2[nH]cc(/C=C/C(N)=O)c12 [Example 195, (E)-3-(4-(tert-butoxy)-7H-pyrrolo[2,3-d]pyrimidin-5-yl)acrylamide] | 920 | 19 | 1 | 13 |
| CC(C)COc1ncnc2[nH]cc(/C=C/C(=O)NCC3CC3)c12 [Example 180, (E)-N-(cyclopropylmethyl)-3-(4-isobutoxy-7H-pyrrolo[2,3-d]pyrimidin-5-yl)acrylamide] | 630 | 2 | 0 | 380 |
| CC(C)COc1ncnc2[nH]cc(C#CC(N)=O)c12 [Example 186, 3-(4-isobutoxy-7H-pyrrolo[2,3-d]pyrimidin-5-yl)propiolamide] | 850 | 1 | 0 |  |
| CC(=O)/C=C/c1c[nH]c2ncnc(OCC(C)C)c12 [Example 37, (E)-4-(4-isobutoxy-7H-pyrrolo[2,3-d]pyrimidin-5-yl)but-3-en-2-one] |  |  |  | 100 |
| CC(C)(C)COc1ncnc2[nH]cc(/C=C/C(N)=O)c12 [Example 192, (E)-3-(4-(neopentyloxy)-7H-pyrrolo[2,3-d]pyrimidin-5-yl)acrylamide] | 78 | 0 | 0 | 5.2 |
| COC(=O)/C(C)=C/c1c[nH]c2ncnc(OCC(C)C)c12 [Example 177, (E)-methyl 3-(4-isobutoxy-7H-pyrrolo[2,3-d]pyrimidin-5-yl)-2-methylacrylate] | 620 | 0 | 0 |  |
| CC(C)COc1ncnc2[nH]cc(C=C(F)C(N)=O)c12 (stereo in doubt) [Example 200, (E) 2-fluoro-3-(4-isobutoxy-7H-pyrrolo[2,3-d]pyrimidin-5-yl)-acrylamide] |  | 61 | 14 | 860 |
| CC(C)COc1ncnc2[nH]cc(/C=C/C(=O)NC[C@@H](C)O)c12 [Example 183, (R,E)-N-(2-hydroxypropyl)-3-(4-isobutoxy-7H-pyrrolo[2,3-d]pyrimidin-5-yl)acrylamide] | 12000 | 78 | 1 | 2500 |
| CC(C)(O)COc1ncnc2[nH]cc(/C=C/C(N)=O)c12 [Example 193, (E)-3-(4-(2-hydroxy-2-methylpropoxy)-7H-pyrrolo[2,3-d]pyrimidin-5-yl)acrylamide] | 1200 | 22 | 0 | 75 |
| CC(C)COc1ncnc2[nH]cc(/C=C\C#N)c12 [Example 36, (Z)-3-(4-isobutoxy-7H-pyrrolo[2,3-d]pyrimidin-5-yl)acrylonitrile] |  |  |  | 170 |
| NC(=O)/C=C/c1c[nH]c2ncnc(OC3CCC(F)(F)CC3)c12 [Example 199, 3-[4-(4,4-difluoro-cyclohexyloxy)-7H-pyrrolo[2,3-c]pyrimidin-5-yl]-acrylamide] | 180 | 0 | 0 | 16 |
| NC(=O)/C=C/c1c[nH]c2ncnc(Oc3ccccc3)c12 [Example 190, (E)-3-(4-phenoxy-7H-pyrrolo[2,3-d]pyrimidin-5-yl)acrylamide] | 1000 | 15 | 0 | 170 |
| CC(C)COc1ncnc2[nH]cc(/C=C/C(=O)NC[C@H](C)O)c12 [Example 182, (S,E)-N-(2-hydroxypropyl)-3-(4-isobutoxy-7H-pyrrolo[2,3-d]pyrimidin-5-yl)acrylamide] | 3400 | 36 | 1 | 1600 |
| COC(=O)/C=C/c1c[nH]c2ncnc(OCc3ccccc3)c12 [Example 201, (E)-3-(4-benzyloxy-7H-pyrrolo[2,3-d]pyrimidin-5-yl)-acrylic acid methylester] | 800 | 26 | 1 | 350 |
| NC(=O)/C=C/c1c[nH]c2ncnc(OCc3cccc(F)c3)c12 [Example 194, (E)-3-(4-((3-fluorobenzyl)oxy)-7H-pyrrolo[2,3-d]pyrimidin-5-yl)acrylamide] | 43 | 1 | 1 |  |
| C=C(C#N)c1c[nH]c2ncnc(OCC(C)C)c12 [Example 197, 2-(4-isobutoxy-7H-pyrrolo[2,3-d]pyrimidin-5-yl)acrylonitrile] |  | 128 | 75 | 750 |
| CCC(=O)/C=C/c1c[nH]c2ncnc(OCC(C)C)c12 [Example 175, (E)-1-(4-isobutoxy-7H-pyrrolo[2,3-d]pyrimidin-5-yl)pent-1-en-3-one] | 990 | 3 | 0 | 200 |
| CC(C)COc1ncnc2[nH]cc(/C=C/C(=O)N(C)C)c12 [Example 184, (E)-3-(4-isobutoxy-7H-pyrrolo[2,3-d]pyrimidin-5-yl)-N,N-dimethylacrylamide] | 190 | 1 | 0 | 97 |
| N#C/C=C/c1c[nH]c2ncnc(OCc3ccccc3)c12 [Example 93, (E)-3-(4-benzyloxy-7H-pyrrolo[2,3-d]pyrimidin-5-yl)-acrylonitrile] | 2200 | 21 | 15 |  |
| CC(C)Oc1ncnc2[nH]cc(/C=C/C(N)=O)c12 [Example 188, (E)-3-(4-isopropoxy-7H-pyrrolo[2,3-d]pyrimidin-5-yl)acrylamide] | 170 | 0 | 0 | 4.4 |
| CCCOc1ncnc2[nH]cc(/C=C/C(N)=O)c12 [Example 189, (E)-3-(4-propoxy-7H-pyrrolo[2,3-d]pyrimidin-5-yl)acrylamide] | 180 | 0 | 0 | 19 |
| NC(=O)/C=C/c1c[nH]c2ncnc(OCc3ccccc3)c12 [Example 96, (E)-3-(4-benzyloxy-7H-pyrrolo[2,3-d]pyrimidin-5-yl)-acrylamide] |  | 78 | 0 | 730 |
| CC(C)COc1ncnc2[nH]cc(/C=C(\Cl)C(N)=O)c12 [Example 196, (Z)-2-chloro-3-(4-isobutoxy-7H-pyrrolo[2,3-d]pyrimidin-5-yl)acrylamide] | 750 | 0 | 0 | 360 |
| CC(C)COc1ncnc2[nH]cc(C/C=C/C(N)=O)c12 [Example 198, 4-(4-isobutoxy-7H-pyrrolo[2,3-d]pyrimidin-5-yl)-but-2-enoic acid amide] | 8400 | 4 | 0 | 420 |
| CNC(=O)/C=C/c1c[nH]c2ncnc(OCC(C)C)c12 [Example 39, (E)-3-(4-isobutoxy-7H-pyrrolo[2,3-d]pyrimidin-5-yl)-N-methylacrylamide] | 43 | 0 | 0 | 41 |
| CCNC(=O)/C=C/c1c[nH]c2ncnc(OCC(C)C)c12 [Example 179, (E)-N-ethyl-3-(4-isobutoxy-7H-pyrrolo[2,3-d]pyrimidin-5-yl)acrylamide] | 87 | 0 | 0 | 340 |
| CC(C)COc1ncnc2[nH]cc(/C=C/C#N)c12 [Example 35, (E)-3-(4-isobutoxy-7H-pyrrolo[2,3-d]pyrimidin-5-yl)acrylonitrile] |  |  |  | 210 |
